For 38 compounds, IC50 results are on record in patent publication US6143764A, “Quinoline and quinazoline derivatives inhibiting platelet-derived growth factor receptor autophosphorylation and pharmaceutical compositions containing the same” (priority 1995, dated 2000).

What is called IC50 is the concentration that inhibits the measured activity by half. Lower therefore signals higher potency.

Structures are written as SMILES.

The target in the experiment is T1, PDGF receptor (Rattus norvegicus, UniProt Q05030).
T1 construct: cultured rat mesangial cells which are known to have the PDGF receptor; endogenous in cells; host or cells: primary mesangial cells cultured from glomeruli of Wistar-Kyoto rats (Charles River Japan), more than 5 passages
T1 sequence (Q05030 32-1097): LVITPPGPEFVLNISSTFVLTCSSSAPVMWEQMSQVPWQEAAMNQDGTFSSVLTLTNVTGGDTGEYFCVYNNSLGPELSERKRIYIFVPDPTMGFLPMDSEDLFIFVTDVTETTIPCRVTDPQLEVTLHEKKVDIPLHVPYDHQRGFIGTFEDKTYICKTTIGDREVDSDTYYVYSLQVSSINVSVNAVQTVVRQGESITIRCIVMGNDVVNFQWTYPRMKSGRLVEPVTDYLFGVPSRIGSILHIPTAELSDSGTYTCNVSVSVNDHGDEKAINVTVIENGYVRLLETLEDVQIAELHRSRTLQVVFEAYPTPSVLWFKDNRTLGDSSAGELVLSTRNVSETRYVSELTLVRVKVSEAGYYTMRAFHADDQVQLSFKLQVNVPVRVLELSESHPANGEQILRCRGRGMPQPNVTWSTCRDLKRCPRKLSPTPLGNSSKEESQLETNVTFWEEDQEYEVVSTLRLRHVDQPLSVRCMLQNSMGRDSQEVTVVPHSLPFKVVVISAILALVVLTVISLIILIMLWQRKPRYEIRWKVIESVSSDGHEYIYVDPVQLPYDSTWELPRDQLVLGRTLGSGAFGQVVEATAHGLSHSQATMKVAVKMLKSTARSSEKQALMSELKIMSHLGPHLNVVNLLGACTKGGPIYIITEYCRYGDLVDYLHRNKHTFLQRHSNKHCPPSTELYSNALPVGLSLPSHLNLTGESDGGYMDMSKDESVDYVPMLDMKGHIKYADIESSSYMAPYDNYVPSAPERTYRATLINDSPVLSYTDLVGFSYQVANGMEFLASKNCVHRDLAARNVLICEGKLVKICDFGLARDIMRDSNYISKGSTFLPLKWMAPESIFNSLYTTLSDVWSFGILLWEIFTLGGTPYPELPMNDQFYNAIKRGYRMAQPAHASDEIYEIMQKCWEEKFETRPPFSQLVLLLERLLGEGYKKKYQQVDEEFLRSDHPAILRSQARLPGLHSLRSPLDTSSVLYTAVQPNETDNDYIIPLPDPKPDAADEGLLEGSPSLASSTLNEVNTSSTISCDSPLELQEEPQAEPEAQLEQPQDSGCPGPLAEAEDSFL
Briefly: PDGF receptor autophosphorylation inhibition in cultured rat mesangial cells. In kind it is cell-based. The settings on record: PDGF-BB 50 ng/ml. The protocol:
1. Cultivation of rat mesangial cells
The glomerulus-derived adhesive cells were subcultured several times to obtain mesangial cells. The mesangial cells subcultured more than 5 passages were used for the assay.
2.Evaluation of PDGF receptor autophosphorylation inhibition
The mesangial cells were seeded in 24-well flat-bottom microtiter plates and then cultured in the medium containing 10% FCS for 2 days. When the cells were grown to about 3×10^4 cells per well, the medium was changed to the medium containing 0.5% FCS, the cultivation was continued for another 3 days, and then cell growth was arrested. The culture medium was removed, the adhered cells were washed with 500 μl of the medium, and 250 μl of the medium containing 0.1% bovine serum albumin (hereinafter abbreviated to BSA) was then added. A test drug dissolved in 1.38 μl of dimethyl sulfoxide (hereinafter abbreviated to DMSO) was added to this culture medium, and the admixture was incubated at 37° C. for 1 hour. Recombinant human platelet-derived growth factor BB chain (hereinafter abbreviated to PDGF-BB) was dissolved in the medium containing 0.1% BSA, 25 μl per well of the solution was added at final 50 ng/ml, and the incubation was continued at 37° C. for 10 minutes. […] The cells were allowed to stand at 4° C. for 30 minutes for lysis, and the resulting solution was thoroughly admixed with an equal amount of Tris-buffered physiological saline containing 1% sodium dodecyl sulfate (hereinafter abbreviated to SDS). […] After the electrophoresis, proteins in the gel were electrically transferred to a PVDF filter, which was then subjected to Western blotting using monoclonal antibodies against phosphotyrosine. Bands of PDGF receptor (molecular weight: about 180 Kda) which were autophosphorylated due to the addition of PDGF-BB were quantitated by a densitometer. Autophosphorylation rates for individual wells with drugs were calculated by setting measurements for PDGF receptor autophosphorylation in the wells without drugs in the presence and absence of PDGF-BB as 100% and 0%, respectively.

`COc1cc2nccc(Oc3ccc(NC(=O)c4ccc(Br)cc4)cc3)c2cc1OC` [Compound 75, N-{4-[(6,7-Dimethoxy-4-quinolinyl)oxy]phenyl}-(4-bromophenyl)carboxamide]: the IC50 came out at 180 nM.
Turning to `COc1cc2nccc(Oc3ccc(NC(=O)C4CCCC4)cc3)c2cc1OC` [Compound 79, N-{4-[(6,7-Dimethoxy-4-quinolinyl)oxy]phenyl}cyclopentanecarboxamide], the midpoint of inhibition, the IC50, lay at 340 nM.
Then `COc1cc2nccc(Oc3cccc(NC(=O)Nc4ccccc4C(F)(F)F)c3)c2cc1OC` [Compound 94], with 23 nM.
In turn, `COc1ccccc1NC(=O)Nc1ccc(Oc2ncnc3cc(OC)c(OC)cc23)cc1` [Compound 113, N-{4-[(6,7-Dimethoxy-4-quinazolinyl)oxy]phenyl)-N'-(2-methoxyphenyl)urea] had an IC50 of 4 nM.
In the case of `COc1cccc(NC(=O)Nc2ccc(Oc3ncnc4cc(OC)c(OC)cc34)cc2)c1` [Compound 114, N-{4-[(6,7-Dimethoxy-4-quinazolinyl)oxy]phenyl}-N'-(3-methoxyphenyl)urea], the IC50 worked out at 4 nM. That is a single-digit nanomolar value.
With `COc1cc2nccc(Oc3ccc(NC(=O)Nc4ccc(C)cc4)cc3)c2cc1OC` [Compound 131] the figure was 3 nM; with `COc1cc2nccc(Oc3ccc(NC(=O)NC(C)C)cc3)c2cc1OC` [Compound 135], 43 nM; with `CCCCNC(=O)Nc1ccc(Oc2ccnc3cc(OC)c(OC)cc23)cc1` [Compound 139, N-n-Butyl-N'-{4-[(6,7-dimethoxy-4-quinolyl)oxy]phenyl}urea], 5 nM.
With `COc1cc2nccc(Oc3ccc(NC(=O)Nc4ccc(SC)cc4)cc3)c2cc1OC` [Compound 163] the figure was 5 nM; with `COc1cc2nccc(Oc3ccc(NC(=O)Nc4ccccc4C(C)C)cc3)c2cc1OC` [Compound 166, N-(2-Isopropylphenyl)-N'-{4-[(6,7-dimethoxy-4-quinolyl)oxy]phenyl}urea], 11 nM.
With `COc1cc2nccc(Oc3ccc(NC(=O)Nc4ccccc4)cc3)c2cc1OC` [Compound 167, N-{4-[(6,7-Dimethoxy-4-quinolyl)oxy]phenyl}-N'-phenylurea] the figure was 4 nM.
Regarding `COc1cc2nccc(Oc3ccc(NC(=O)Nc4ccccc4N)cc3)c2cc1OC` [Compound 169, N-(2-Aminophenyl)-N'-{4-[(6,7-dimethoxy-4-quinolyl)oxy]phenyl}urea], the IC50 stood at 4 nM.
`COc1cc2nccc(Oc3ccc(NC(=O)Nc4cccc(N)c4)cc3)c2cc1OC` [Compound 172, N-(3-Aminophenyl)-N'-{4-[(6,7-dimethoxy-4-quinolyl)oxy]phenyl}urea]: inhibition was half-maximal at 10 nM (IC50).
Then `COc1cc2nccc(Oc3ccc(NC(=O)Nc4cccc5ccccc45)cc3)c2cc1OC` [Compound 174, N-{4-[(6,7-Dimethoxy-4-quinolyl)oxy]phenyl}-N'-(1-naphthyl)urea], with 2 nM; and `COc1cc2nccc(Oc3ccc(NC(=O)Nc4ccccc4-c4ccccc4)cc3)c2cc1OC` [Compound 175, N-(2-Biphenyl)-N'-{4-[(6,7-dimethoxy-4-quinolyl)oxy]phenyl}urea], with 6 nM.
The compound `CCc1ccc(NC(=O)Nc2ccc(Oc3ccnc4cc(OC)c(OC)cc34)cc2)cc1` [Compound 188, N-(4-Ethylphenyl)-N'-{4-[(6,7-dimethoxy-4-quinolyl)oxy]phenyl}urea] yielded an IC50 of 6 nM.
With `COc1cc2nccc(Oc3ccc(NC(=O)NC(=O)c4ccccc4)cc3)c2cc1OC` [Compound 189, N-Benzoyl-N'-{4-[(6,7-dimethoxy-4-quinolyl)oxy]phenyl}urea] the figure was 11 nM.
Compound `COc1cc2nccc(Oc3ccc(NC(=O)Nc4cccc(N(C)C)c4)cc3)c2cc1OC` [Compound 192] registered an IC50 of 4 nM.
`COc1cc2nccc(Oc3ccc(NC(=O)Nc4ccc(C(=O)c5ccccc5)cc4)cc3)c2cc1OC` [Compound 195, N-{4-[(6,7-Dimethoxy-4-quinolyl)oxy]phenyl}-N'-(4-phenylcarbonylphenyl)urea]: half-maximal inhibition (IC50) was put at 79 nM. Compared with the last compound, the IC50 is about 20-fold higher.
With `CCCCCCNC(=O)Nc1ccc(Oc2ccnc3cc(OC)c(OC)cc23)cc1` [Compound 196, N-Hexyl-N'-{4-[(6,7-dimethoxy-4-quinolyl)oxy]phenyl}urea] the figure was 31 nM; with `COc1cc2nccc(Oc3ccc(NC(=O)Nc4ccc5c(c4)CCC5)cc3)c2cc1OC` [Compound 197, N-(5-Indanyl)-N'-{4-[(6,7-dimethoxy-4-quinolyl)oxy]phenyl}urea], 10 nM.
For `COc1ccc(NC(=O)Nc2ccc(Oc3ccnc4cc(OC)c(OC)cc34)cc2)cc1OC` [Compound 198, N-(3,4-Dimethoxyphenyl)-N'-{4-[(6,7-dimethoxy-4-quinolyl)oxy]phenyl}urea], the IC50 was determined as 11 nM. The IC50 values of the last two compounds are within 1.5-fold of each other.
With `COc1cc2nccc(Oc3ccc(NC(=O)Nc4ccc5c(c4)OCCO5)cc3)c2cc1OC` [Compound 199, N-(3,4-Ethylenedioxyphenyl)-N'-{4-[(6,7-dimethoxy-4-quinolyl)oxy]phenyl}urea] the figure was 3 nM.
Then `COc1ccc(NC(=O)N(C)c2ccc(Oc3ccnc4cc(OC)c(OC)cc34)cc2)cc1` [Compound 200, N-Methyl-N-{4-[(6,7-dimethoxy-4-quinolyl)oxy]phenyl}-N'-(4-methoxyphenyl)urea], with 4 nM.
Then `CCCCNC(=O)Nc1ccc(Oc2ncnc3cc(OC)c(OC)cc23)cc1` [Compound 220, N-(4-[(6,7-Dimethoxy-4-quinazolinyl)oxy]phenyl)-N'-n-butylurea], with 9 nM.
Turning to `COc1cc2nccc(Oc3ccc(NC(=O)Nc4ccc([N+](=O)[O-])cc4Cl)cc3)c2cc1OC` [Compound 224, N-(2-Chloro-4-nitrophenyl)-N'-{4-[(6,7-dimethoxy-4-quinolyl)oxy]phenyl}urea], it took 87 nM to reach half-maximal inhibition (IC50).
With `COc1cc2nccc(Oc3ccc(NC(=O)Nc4c(C)cccc4Cl)cc3)c2cc1OC` [Compound 226, N-(2-Chloro-6-methylphenyl)-N'-{4-[(6,7-dimethoxy-4-quinolyl)oxy]phenyl}urea] the figure was 11 nM.
With `COc1cc2nccc(Oc3ccc(NC(=O)Nc4ccc(Cl)c([N+](=O)[O-])c4)cc3)c2cc1OC` [Compound 228, N-(4-Chloro-3-nitrophenyl)-N'-{4-[(6,7-dimethoxy-4-quinolyl)oxy]phenyl}urea] the figure was 55 nM; with `COc1cc2nccc(Oc3ccc(NC(=O)Nc4c(Cl)cccc4Cl)cc3)c2cc1OC` [Compound 230, N-(2,6-Dichlorophenyl)-N'-{4-[(6,7-dimethoxy-4-quinolyl)oxy]phenyl}urea], 34 nM.
Compound `COc1cc2nccc(Oc3ccc(NC(=O)NC(C)c4cccc5ccccc45)cc3)c2cc1OC` (centres unmarked) [Compound 231, N-{4-[(6,7-dimethoxy-4-quinolyl)oxy]phenyl)-N'-[1-(1-naphthyl)ethyl]urea] had an IC50 of 19 nM.
With `CCCCc1ccccc1NC(=O)Nc1ccc(Oc2ccnc3cc(OC)c(OC)cc23)cc1` [Compound 232, N-(2-n-Butylphenyl)-N'-(4-[(6,7-dimethoxy-4-quinolyl)oxy]phenyl}urea] the figure was 18 nM; with `CCOC(=O)c1cccc(NC(=O)Nc2ccc(Oc3ccnc4cc(OC)c(OC)cc34)cc2)c1` [Compound 233, N-(3-Ethoxycarbonylphenyl)-N'-{4-[(6,7-dimethoxy-4-quinolyl)oxy]phenyl}urea], 13 nM; with `COc1cc2nccc(Oc3ccc(NC(=O)Nc4ccc(Cl)cc4[N+](=O)[O-])cc3)c2cc1OC` [Compound 238, N-(4-Chloro-2-nitrophenyl)-N'-{4-[(6,7-dimethoxy-4-quinolyl)oxy]phenyl}urea], 16 nM.
The compound `COc1cc2nccc(Oc3ccc(NC(=O)Nc4ccc(Cl)cc4N)cc3)c2cc1OC` [Compound 239, N-(2-Amino-4-chlorophenyl)-N'-{4-[(6,7-dimethoxy-4-quinolyl)oxy]phenyl}urea] showed an IC50 of 5 nM.
Then `COc1cc2nccc(Oc3ccc(NC(=O)NC(=O)c4ccccn4)cc3)c2cc1OC` [Compound 240, N-{4-[(6,7-dimethoxy-4-quinolyl)oxy]phenyl}-N'-(2-pyridinecarbonyl)urea], with 150 nM; and `COc1cc(OC)c(NC(=O)Nc2ccc(Oc3ccnc4cc(OC)c(OC)cc34)cc2)cc1Cl` [Compound 241, N-(3-Chloro-4,6-dimethoxyphenyl)-N'-{4-[(6,7-dimethoxy-4-quinolyl)oxy]phenyl}urea], with 18 nM; and `COCCCNC(=O)Nc1ccc(Oc2ccnc3cc(OC)c(OC)cc23)cc1` [Compound 245, N-(3-Methoxypropyl)-N'-{4-[(6,7-dimethoxy-4-quinolyl)oxy]phenyl}urea], with 6 nM.
Then `COCCNC(=O)Nc1ccc(Oc2ccnc3cc(OC)c(OC)cc23)cc1` [Compound 246, N-(2-Methoxyethyl)-N'-{4-[(6,7-dimethoxy-4-quinolyl)oxy]phenyl}urea], with 13 nM.
